{"source": "patent US20150274690A1", "about": "“Strigolactone Compositions And Uses Thereof” (Asilomar Bio, Inc., priority 2013, published 2015)", "key": {"Striga hermonthica seeds": {"system": "Striga hermonthica seeds", "details": "10^-8 M concentrations; cited from earlier work"}, "Seeds of O. cumana": {"system": "Seeds of O. cumana", "experiment": "Germination triggering of parasitic weed seeds", "type": "in vivo", "details": "48 hours post-treatment; AB01 compared with 5-dS", "procedure": "Seeds of O. cumana were primed by incubation on glass fiber filters in darkness at room temperature for 3 days. Specified concentrations of AB01 or 5-dS were applied and seeds were monitored at 48 hours post-treatment. Germination was evident by appearance of haustoria. Experiments were performed in triplicate."}, "[1]": {"system": "A. thaliana mutants lacking MAXI cytochrome P450 activity", "experiment": "Complementation of Arabidopsis mutant deficient in strigolactone biosynthesis", "type": "in vivo, Arabidopsis thaliana", "details": "1 uM as an irrigation supplement", "procedure": "To further validate the bioactivity of AB01 we tested whether the compound could complement mutants of the model plant Arabidopsis thaliana that are deficient in strigolactone biosynthesis. […] We grew MAXI A. thaliana under standard conditions and added 1 uM AB01 as an irrigation supplement, or a mock treatment. […] Thus, the synthetic AB01 is sufficiently similar to strigolactone to both to trigger Striga germination as well as substitute for the natural compound in a model plant."}, "Tomato seedlings": {"system": "Tomato seedlings", "experiment": "Salinity tolerance in tomato seedlings", "type": "in vivo", "details": "10 mg/mL; 29.2 g/L NaCl irrigation 24 hours after treatment; 6 hours after salt irrigation", "procedure": "Tomato seedlings were treated with 10 mg/mL AB01 or mock treated. 24 hours after treatment, they were irrigated with 250 mL water containing 29.2 g/L salt (NaCl)."}, "Alfalfa [2]": {"system": "Alfalfa", "experiment": "Salinity tolerance in alfalfa seedlings", "type": "in vivo", "details": "1 mg/mL; irrigated every 48 hours with 35 g/L NaCl; after 5 days", "procedure": "Alfalfa was grown from seeds for 14 days. Seedlings were treated with 1 mg/mL AB01 or mock treated. After treatment, plants were irrigated with 100 mL water containing 35 g/L dissolved salt (NaCl). Irrigation was performed every 48 hours and plants monitored for symptoms of salinity stress."}, "[3]": {"system": "Dekalb 67-86 RR corn seedlings", "experiment": "Acute water stress in corn seedlings (leaf rolling score)", "type": "in vivo", "details": "40 mL of 0.1 mM or 1.0 mM; 6th day without irrigation", "procedure": "Corn seedlings were scored as unstressed, moderately water stressed and severely water stressed as measured by visual inspection of leaf rolling, a response of corn to water stress. Dekalb 67-86 RR corn seeds were planted and then irrigated through 7 days after emergence in a greenhouse setting. Seedlings were then treated with 40 mL of water, 0.1 mM AB01 or 1.0 mM AB01 and irrigation ceased. On the 6th day without irrigation, seedlings were scored for water stress. Seedlings with open leaves were scored as unstressed; seedlings with partial leaf rolling were scored as moderately stressed; seedlings with completely rolled leaves were scored as severely stressed."}, "cut flowers": {"system": "cut flowers", "experiment": "Vase life extension of cut flowers", "type": "in vivo", "procedure": "This example determines the effect of the application of a plant propagation material comprising strigolactone or analogs or mimics thereof on the onset of water-stress symptoms in cut flowers during storage, shipping, and/or life in retail or consumer environment. We test a wide range of concentrations to focus our investigations of the effects of the plant propagation material on cut flowers. Indicators of water-limitation stress in flowers are measured (approximately daily). We take cut flowers, apply a plant propagation material in irrigation water, and place in a normal storage environment (e.g., regular day-night cycles, room temperature). The concentration of the strigolactone or analog or mimic thereof in the plant propagation material spanned a concentration range from 1 gram per liter to 1 picogram per liter. We then monitor plants daily for the presence of water stress indicators and shelf life, such as flower and leaf rolling (wilting), turgor of stems, chlorophyll content, and loss of petals.\nVarious concentrations of the strigolactone mimic were added to the irrigation water of the cut flowers. The vase life for cut flowers treated with water-only was approximately 4 days, whereas the vase life for the cut flowers treated with the plant propagation material was approximately 6-7 days."}, "[4]": {"system": "corn (Dekalb hybrid 68-05)", "experiment": "Corn field trial, Hays County, Tex., not irrigated", "type": "in vivo", "procedure": "Field trial was performed from April to July 2014 in Hays County, Tex. Dekalb hybrid 68-05 was planted at a density of 25,000 plants per acre (30″rows with 8″spacing). The field was top-dressed with 80 lbs/ac nitrogen. The field was not irrigated. AB01 treated plots were sprayed with a 2 gram per acre dose at the tasseling (VT) stage. Spraying was accomplished by resuspending solid AB01 in 0.5 mL of acetone, and diluting in water for a spray volume of 1 gallon per 500 square feet. Experiments were performed in triplicate […] The fraction of fertilized ears was measured by visual inspection of the ear silk at the R2-R3 stage. Unfertilized silks that appear yellow/green, while fertilized silks appear reddish brown. Completely unfertilized ears have silks that are completely yellow/green, fertilized ears appear brown, while ears with an incomplete degree of fertilized silks have a mixed population of silks. […] Ears were visually inspected at harvest to monitor kernel set (the number of fully formed kernels in the mature ear). […] Ears volume was measured in the field at the R3 stage to calculate ear volume. The length and circumference of each ear was measure, and volume was calculated by treating the ear as a cylinder. Approximately 100 ears from each plot were measured. […] After harvest, ears were shelled and kernels counted and weighed to quantitate the ‘thousand kernel weight’ (TKW), or average mass of kernels in the trial. AB01 treated plots yielded kernels averaging 30% higher mass than control plots. Ears from control and treated plots were harvested, shelled, and moisture tested to quantitate dry mass. Control plots averaged 120 bushels per acre, while AB01 treated plots averaged 143 bushels per acre, a 19% increase. Grain yield is calculated at 15% moisture, a standard measure of harvest output."}, "Striga": {"system": "Striga", "experiment": "Field trial in Striga infested fields, Siaya County, Kenya", "type": "in vivo", "details": "1 gram per acre sprayed 1 week prior to planting", "procedure": "Field trial was performed from August 2013 to January 2014 in Siaya County, Kenya. AB01 treated plots were sprayed with a 1 gram per acre dose 1 week prior to planting. Treatment was accomplished by resuspending solid AB01 in 1 mL of acetone, and diluting in 4000 L of water. 3 replicate treated and untreated plots (100 m2 each) were performed. […] (C) The biomass of Striga from each plot was collected and measured after harvest."}, "Seeds of Striga asiatica": {"system": "Seeds of Striga asiatica", "experiment": "Triggering Striga germination (seed germination bioassay)", "type": "in vivo", "details": "for bioactivity: induction of Striga germination (in words): radicle emergence from seeds", "procedure": "(B) Bioactivity of synthetic SL. Seeds of Striga asiatica were exposed to SL (right) or a mock treatment (left). […] (C) Synthetic biological pathway for the production of SL in yeast, consisting of enzymes of plant and microbial origin. We tested the ability of AB01 to trigger the germination of Striga seeds. Seeds of Striga asiatica were conditioned by incubation in the dark at 30 degrees for 7 days, and dilutions of the AB01 material in water were applied. We observed that concentrations of 1 nanogram per liter and greater were able to trigger germination of approximately 30% of the seeds, which is similar to published efficiencies and activity for plant-derived strigolactone (FIG. 1A-B)."}, "Wheat": {"system": "Wheat", "experiment": "Drought tolerance in greenhouse wheat", "type": "in vivo", "details": "1 mg in 100 mL water; irrigation stopped; 7 days post treatment", "procedure": "Wheat was grown in greenhouse conditions from seed for 6 weeks with adequate irrigation. Plants were treated with 1 mg of AB01 resuspended in acetone and diluted in 100 mL water, or mock treated as a control. Irrigation was stopped and plants monitored for symptoms of drought stress."}, "Alfalfa [5]": {"system": "Alfalfa", "experiment": "Drought tolerance in alfalfa seedlings", "type": "in vivo", "details": "1 mg/mL; irrigation stopped; approximately 7 days post-treatment", "procedure": "Alfalfa was grown from seeds for 14 days. Seedlings were treated with 1 mg/mL AB01 or mock treated. Irrigation was stopped after treatment and seedlings were monitored for symptoms of water limitation stress."}}, "data": [{"smiles": "CC1=C[C@H](O/C=C2/C(=O)O[C@@H]3C4=C(C[C@H]23)C(O)CCC4(C)C)OC1=O", "note": "(single isomer, unassigned; (+)) [(+)-strigol, (+)-Strigol]", "values": [{"measurement": "activity in germination studies of Striga hermonthica seeds", "setting": "Striga hermonthica seeds", "value": 93, "unit": "%"}]}, {"smiles": "CC1=C[C@H](O/C=C2/C(=O)O[C@@H]3C4=C(CCCC4(C)C)CC23)OC1=O", "note": "(stereo partly shown) [5-dS, 5-deoxystrigol, reference compound]", "values": [{"measurement": "germination triggering efficiency (appearance of haustoria)", "setting": "Seeds of O. cumana", "value": "Significant differences in germination triggering efficiency"}]}, {"smiles": "CC1=CC(O/C=C2\\C(=O)O[C@]3(C)CCC4C(C)(C)CCC[C@]4(C)[C@@H]23)OC1=O", "note": "(stereo partly shown) [AB01]", "values": [{"measurement": "impact on phenotype of strigolactone-deficient mutant", "setting": "[1]", "value": "visible impact on the phenotype of the mutant"}, {"measurement": "symptoms of salinity shock (wilting)", "setting": "Tomato seedlings", "value": "appeared unstressed"}, {"measurement": "germination triggering efficiency (appearance of haustoria)", "setting": "Seeds of O. cumana", "value": "Significant differences in germination triggering efficiency"}, {"measurement": "symptoms of salinity stress (chlorosis, vigor)", "setting": "Alfalfa [2]", "value": "displayed significantly higher vigor"}, {"measurement": "fraction of seedlings scored unstressed / severely water stressed", "setting": "[3]", "value": "decreased the fraction of severely stressed seedlings while increasing the fraction of unstressed seedlings in a dose-dependent manner"}, {"measurement": "vase life of cut flowers", "setting": "cut flowers; added to irrigation water, various concentrations, water-only approximately 4 days", "value": "6 to 7", "unit": "days"}, {"measurement": "vase life extension", "setting": "cut flowers; versus water-only control", "value": "50-60%"}, {"measurement": "increase of harvest grain yield over control plots", "setting": "[4]; 2 gram per acre spray at VT", "value": 19, "unit": "%"}, {"measurement": "average kernel mass (thousand kernel weight), higher than control plots", "setting": "[4]; 2 gram per acre spray at VT, after harvest", "value": 30, "unit": "%"}, {"measurement": "harvest grain yield", "setting": "[4]; 2 gram per acre spray at VT, calculated at 15% moisture, control plots 120", "value": 143, "unit": "bushels per acre"}, {"measurement": "ear volume", "setting": "[4]; 2 gram per acre spray at VT, measured at R3 stage, vs mock", "value": "significantly higher volumes"}, {"measurement": "kernel set at harvest", "setting": "[4]; 2 gram per acre spray at VT, visual inspection, vs mock", "value": "more complete kernel set and few signs of kernel abortion"}, {"measurement": "fraction of fertilized / unfertilized ears", "setting": "[4]; 2 gram per acre spray at tasseling (VT), ear silk inspected at R2-R3 stage, vs mock", "value": "decreased the fraction of unfertilized ears while increasing the fraction of fertilized ears"}, {"measurement": "Striga emergence and Striga-related stress in plots", "setting": "Striga", "value": "few signs of Striga-related stress and parasite emergence"}, {"measurement": "biomass of Striga per plot after harvest", "setting": "Striga", "value": "significant reduction in the mass of Striga present"}, {"measurement": "count of emergent Striga per plot", "setting": "Striga", "value": "few parasites in treated plots"}, {"measurement": "increase of grain yields compared to untreated plots", "setting": "Striga", "value": 25, "unit": "%"}, {"measurement": "fraction of Striga seeds triggered to germinate", "setting": "Seeds of Striga asiatica; at 1 nanogram per liter and greater", "value": "approximately 30%"}, {"measurement": "concentrations able to trigger germination of Striga seeds", "setting": "Seeds of Striga asiatica; dilutions in water, seeds conditioned in the dark at 30 degrees for 7 days", "value": "≥ 1", "unit": "nanogram per liter"}, {"measurement": "bioactivity: induction of Striga germination (in words)", "setting": "Seeds of Striga asiatica", "value": "graded dose-response behavior"}, {"measurement": "bioactivity: induction of Striga germination (in words)", "setting": "Seeds of Striga asiatica; listed as Synthetic SL", "value": "potent bioactivity, with nanograms of material inducing germination of Striga seeds"}, {"measurement": "bioactivity: induction of Striga germination (in words)", "setting": "Seeds of Striga asiatica; listed as synthetic SL", "value": "displayed bioactivity"}, {"measurement": "bioactivity: induction of Striga germination (in words)", "setting": "Seeds of Striga asiatica; listed as synthetically produced SL", "value": "effective at germinating seeds of Striga asiatica"}, {"measurement": "symptoms of drought stress (wilting)", "setting": "Wheat", "value": "appeared vigourous"}, {"measurement": "appearance of seedlings under water limitation stress", "setting": "Alfalfa [5]", "value": "treated seedlings appeared robust"}]}, {"smiles": "CC1=CC(OC=C2C(=O)OC3C4=C(CC23)C(O)CCC4(C)C)OC1=O", "note": "(stereo not drawn) [ent-strigol]", "values": [{"measurement": "activity in germination studies of Striga hermonthica seeds", "setting": "Striga hermonthica seeds", "value": 22, "unit": "%"}]}]}
